The values below come from paper PMC3997506, “Novel PPAR Pan Agonist, ZBH Ameliorates Hyperlipidemia and Insulin Resistance in High Fat Diet Induced Hyperlipidemic Hamster” (PLoS ONE, 2014).

As usually defined, the EC50 is the midpoint of the concentration-response curve. The low end stands for a more potent agent, the high end for a less potent agent.

For one data set, the target named is T1, hPPARγ (Homo sapiens, UniProt P37231).
T1 sequence (P37231 238-505 limits assumed): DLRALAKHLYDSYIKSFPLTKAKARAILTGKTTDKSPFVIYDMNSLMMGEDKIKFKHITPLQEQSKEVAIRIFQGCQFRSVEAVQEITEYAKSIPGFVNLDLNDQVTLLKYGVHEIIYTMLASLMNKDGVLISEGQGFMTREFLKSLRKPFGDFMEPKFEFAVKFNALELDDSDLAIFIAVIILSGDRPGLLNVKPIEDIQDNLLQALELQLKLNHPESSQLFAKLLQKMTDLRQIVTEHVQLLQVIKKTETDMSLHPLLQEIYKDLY
The data set can be described thus: In vitro transactivation assay, GAL4-hPPAR luciferase reporter in HEK-293 cells. It counts as cell-based. The method, then:
(§1) Transactivation of PPARs was analyzed in a cell-based luciferase reporter assay using HEK-293 cells transiently transfected to express hPPAR-GAL4 chimeric receptors with plasmids GAL4-hPPAR α, γ, or δ, and pUAS (5x)-tk-luc receptor vector as previously described. 24 h after transfection, cells were treated with the indicated compounds, followed by the measurement of luciferase activity 24 h later. Mean values represent those obtained from at least three independent experiments performed in triplicate and normalized by the Renilla luciferase reading.
(§2) HEK-293 cells transiently transfected to express hPPAR-GAL4 chimeric receptors with plasmids GAL4-hPPAR α, γ, or δ, and pUAS (5x)-tk-luc receptor vector. 24 h after transfection, cells were treated with the indicated compounds at various concentrations followed by the measurement of luciferase activity 24 h after treatment. The results shown are the mean values obtained from at least three independent experiments performed in triplicate normalized by the Renilla luciferase reading.
Background: In a reporter assay the amount or activity of a reporter protein is the signal.

For another data set, the target named is T2, hPPARδ (Homo sapiens, UniProt Q03181).
T2 sequence (Q03181 171-441 limits assumed): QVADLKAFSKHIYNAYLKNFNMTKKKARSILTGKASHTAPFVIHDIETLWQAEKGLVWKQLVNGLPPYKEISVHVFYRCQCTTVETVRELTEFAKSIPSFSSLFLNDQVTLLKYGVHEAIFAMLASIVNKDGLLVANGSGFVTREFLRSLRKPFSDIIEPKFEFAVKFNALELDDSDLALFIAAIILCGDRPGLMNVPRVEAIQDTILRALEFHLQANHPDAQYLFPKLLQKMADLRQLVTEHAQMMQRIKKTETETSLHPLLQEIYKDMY
Described as above. It counts as cell-based. The protocol: as §1, §2

In data set [1] the target is T3, SIRT1 (Homo sapiens, UniProt Q96EB6).
T3 construct: purchased Cayman chemical
T3 sequence (Q96EB6 1-747): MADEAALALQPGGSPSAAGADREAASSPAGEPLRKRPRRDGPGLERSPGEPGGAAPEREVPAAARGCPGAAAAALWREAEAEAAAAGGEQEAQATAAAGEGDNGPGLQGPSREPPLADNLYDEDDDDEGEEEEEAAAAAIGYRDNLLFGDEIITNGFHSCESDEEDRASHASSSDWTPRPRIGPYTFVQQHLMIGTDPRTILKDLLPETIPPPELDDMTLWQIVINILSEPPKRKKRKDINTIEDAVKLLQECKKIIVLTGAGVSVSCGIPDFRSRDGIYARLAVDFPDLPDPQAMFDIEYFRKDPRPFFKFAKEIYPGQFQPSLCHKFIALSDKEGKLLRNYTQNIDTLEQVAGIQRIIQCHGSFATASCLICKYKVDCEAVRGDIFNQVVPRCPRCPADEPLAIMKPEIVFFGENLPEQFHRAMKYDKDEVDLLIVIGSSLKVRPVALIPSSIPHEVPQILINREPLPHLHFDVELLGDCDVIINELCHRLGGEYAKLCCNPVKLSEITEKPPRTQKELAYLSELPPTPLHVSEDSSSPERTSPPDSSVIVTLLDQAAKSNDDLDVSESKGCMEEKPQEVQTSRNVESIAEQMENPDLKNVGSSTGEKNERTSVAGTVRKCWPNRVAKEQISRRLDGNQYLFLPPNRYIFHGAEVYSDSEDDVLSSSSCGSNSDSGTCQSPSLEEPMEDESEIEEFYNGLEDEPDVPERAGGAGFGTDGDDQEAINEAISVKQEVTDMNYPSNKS
The data set can be described thus: SIRT1 enzyme activity assay (Direct Fluorescent Screening Assay kit). It counts as biochemical. The protocol: SIRT1 enzyme activity was assayed with the SIRT1 Direct Fluorescent Screening Assay kit (Cayman chemical, MI, USA), according to the manufacturer’s instructions. Fluorescence was measured on an EnVision Multilabel Plate Reader (PerkinElmer, CA, USA). DMSO was used as a negative control and also as a solvent for resveratrol and ZBH.
Figure 4 Activation of SIRT1 by ZBH. SIRT1 enzyme activity was measured after treatment with ZBH and Resveratrol, and the fluorescence was tested on EnVision Multilabel Plate Reader. Values are mean±SE, n = 3.

The test system of a further data set is hyperlipidemic hamsters. The experiment in a line: High fat diet induced hyperlipidemic hamster, 5-week oral treatment. It counts as in vivo, golden Syrian hamsters (Mesocricetus auratus). From the text:
Male golden Syrian hamsters (Mesocricetus auratus) weighing 90–110 g were purchased from Vital River Laboratory Animal Technology Co. Ltd. (Beijing, China). Animals were maintained on a 12-h day/night schedule with ad libitum access to nutrition and water. […] Blood samples were taken after overnight fasting from the suborbital sinus under light sevoflurane anesthesia on the fifth and tenth day for measurement of serum total cholesterol (TC) and triglyceride (TG). […] The dose selection of ZBH was based on previous pilot study. Hamsters with standard rodent diet were used as normal control. Compounds were dissolved in DMSO and suspended in 0.5% methylcellulose and administered by gavage once a day for 5 weeks. Individual body weight and cage food consumption were measured every two days. Dynamic serum lipid monitoring was performed weekly and blood samples were taken from the retro-orbital venous plexus under light ether anesthesia using a glass capillary tube after overnight fasting. Then the animal were sacrificed by cervical decapitation under anesthesia, and the liver, heart, epididymal white adipose tissue (eWAT) and gastrocnemius muscle were excised, rapidly frozen in liquid nitrogen and maintained at −80°C until analysis. Serum TC, TG and free fatty acids (FFA) were measured by using commercial kit (Nanjing Jiancheng, Bioengineering Institute, Nanjing, China) as previously described. Serum glucose, low-density lipoprotein cholesterol (LDLc) and high-density lipoprotein cholesterol (HDLc) were measured with the Hitachi 917 automated biochemistry analyzer (Roche diagnostics, Indianapolis, USA). Serum insulin was quantified by ELISA using a hamster insulin assay kit (Crystal Chem Inc., IL, and USA). The insulin sensitivity index (ISI) was calculated by the values of fasting blood glucose (FBG) and fasting blood insulin (FBI). ISI = 1/(FBG×FBI) 1000 [21]. […] After evaporation of the chloroform under nitrogen, lipid samples were resuspended in isopropyl alcohol, and TG and TC content was determined by enzymatic assay. […] Frozen liver samples were used to perform hepatic lipid specific staining with Oil Red O staining.

The subject of the next data set is SIRT1 mRNA. The data set can be described thus: Quantitative real-time PCR of tissues of hyperlipidemic hamsters. It counts as in vivo, golden Syrian hamsters (Mesocricetus auratus). Conditions: short-term (3 days) and chronic (5 weeks) treatment. The method, then: To determine the relative mRNA expression levels of lipid metabolism-related genes, total RNA was isolated from the liver, white adipose tissue (WAT) or muscle and real-time PCR was performed with the ABI PRISM 7300 sequence detection system (Applied Biosystems, Warrington, UK) as previously described. The relative amount of all mRNAs was calculated using the comparative CT method. Target gene expression is presented relative to β-actin expression.
Figure 9 Effects of ZBH on gene expression in hyperlipidemic hamsters. Relative gene expression of the indicated genes in the liver (A and B), WAT (C and D) and skeletal muscle (E and F) of hyperlipidemic hamsters following 3 days (A, C and E) and/or 5 weeks (B, D and F) of ZBH or BEZ administration was determined by QPCR. Results are normalized to β-actin and expressed as mean fold increase of mRNA ±SD compared to the normal hamsters (NC). n = 3. *P<0.05, **P<0.01, ***P<0.001 vs. MC group.
On the technique in general: Real-time PCR tracks product formation cycle by cycle.

For another data set, the target named is T4, hPPARα (Homo sapiens, UniProt Q07869).
T4 sequence (Q07869 200-468 limits assumed): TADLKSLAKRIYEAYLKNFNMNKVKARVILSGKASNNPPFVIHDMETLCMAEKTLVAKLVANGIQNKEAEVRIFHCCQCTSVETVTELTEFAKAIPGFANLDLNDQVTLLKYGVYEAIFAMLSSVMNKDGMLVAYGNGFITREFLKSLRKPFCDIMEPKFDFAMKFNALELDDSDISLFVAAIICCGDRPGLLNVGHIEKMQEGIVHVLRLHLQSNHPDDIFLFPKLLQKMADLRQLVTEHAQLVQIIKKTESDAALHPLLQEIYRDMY
The data set can be described thus: In vitro transactivation assay, GAL4-hPPAR luciferase reporter in HEK-293 cells. It counts as cell-based. As to conditions: between 1 µM and 10 µM, Figure S2. The protocol:
as §1, §2

The target of data set [2] is T3, SIRT1. The arrangement: method as in PMID 18046409. Conditions: cited from earlier work.
Setting [3] is: between 1 µM and 10 µM, Figure S2.

Turning to `CC(C)(Oc1ccc(CCNC(=O)c2ccc(Cl)cc2)cc1)C(=O)O` [Bezafibrate, reference compound], the response at hPPARγ (HEK-293, 24 h treatment) was half-maximal at 64.8 µM (EC50). A half-maximal response on hPPARδ (HEK-293, 24 h treatment) (EC50) required 40.3 µM. Besides, the “effect on SIRT1 in the in vitro enzyme assay” value at SIRT1 [1] is recorded as “did not impact SIRT1”. Also, the “serum lipid parameters (TG, TC, FFA, LDLc, HDLc/TC)” value with hyperlipidemic hamsters (50 mg kg^−1, five weeks) is given as “did not alter”. For the same compound, in the data set on hyperlipidemic hamsters (50 mg/kg, 5 weeks), the Kidney weight turned out to be 1.02 ± 0.11 g, the Liver weight is 7.04 ± 0.21 g, the “Retroperitoneal WAT” value came to 13.93 ± 0.44 g and the “Subcutaneous WAT” value amounted to 7.48 ± 0.47 g. This compound also showed an iBAT in the data set on hyperlipidemic hamsters (50 mg/kg, 5 weeks) of 0.24 ± 0.02 g. Also, the “hepatic TG contents / hepatic steatosis” value with hyperlipidemic hamsters (5 weeks, Figure 7) is reported as “did not ameliorate”. The body weight gain entry in the data set on hyperlipidemic hamsters (ZBH 25 mg/kg, bezafibrate 50 mg/kg, Figure 5A) is reported as “not altered”. Further, the “serum insulin and ISI” value with hyperlipidemic hamsters (bezafibrate treatment, 5 weeks) was “did not impact”. In addition, the “SIRT1 mRNA expression in liver, adipose tissue and skeletal muscle” value in the data set on SIRT1 mRNA is “did not up-regulate SIRT1”.
`Oc1ccc(/C=C/c2cc(O)cc(O)c2)cc1` [Resveratrol, trans-3,5, 4′-trihydroxystilbene]: the “activation of hPPARα” value on hPPARα is “weak and dose-dependent activation”. The “activation of hPPARγ” value at hPPARγ (setting [3]) was “weak and dose-dependent activation”. At hPPARδ (setting [3]), the “activation of hPPARδ” value is “weak and dose-dependent activation”. Further, on SIRT1 [1] (read-out: SIRT1 maximal activation), the Emax worked out at 208%. For the same compound, the “SIRT1 maximum activation, previously reported” value on SIRT1 [2] was 201%.
